In brackets after ≈: the same amount, converted by molar mass. Like-named read-outs stand apart in the source and are kept apart here. Square brackets hold non-standard residues; d marks the D form. Peptide text beside a SMILES is read from it.
Legend:
Pae 27853 = experiment: MIC determination (CLSI, 2-fold serial dilutions); format: cell-based, Pseudomonas aeruginosa
Procedure: (§1) Assessment of Antimicrobial Activity. […] All plates were placed at 37° C. overnight. After 18 hours the plates were read using a mirrored plate reader and reflected incandescent light. […] Wells at and above the MIC should appear void of growth when read by eye.

Pae 39324 = experiment: MIC determination (CLSI, 2-fold serial dilutions); format: cell-based, Pseudomonas aeruginosa
Procedure: as §1

Eco 25922 = experiment: MIC determination (CLSI, 2-fold serial dilutions); format: cell-based, E. coli
Procedure: as §1

Sau 29213 = experiment: MIC determination (CLSI, 2-fold serial dilutions); format: cell-based, S. Aureus
Procedure: as §1

[1] = MIC in human serum (hsMIC) relative to MIC; format: cell-based; conditions: NA, no active in human serum
Procedure: In an embodiment, the MIC is determined in the presence of phosphate-buffered saline (PBS). In an embodiment, the MIC or hsMIC is determined on per ADC basis. In an embodiment, the MIC or hsMIC is determined on per payload or antimicrobial peptide basis.

human red blood cells [2] = tested on: human red blood cells
P. aeruginosa BAA-2108 = tested on: P. aeruginosa BAA-2108; design: key: R = Resistant; S = Suspectible; I = Intermediate; NT = Note Tested; conditions: strain BAA-2108, isolated from human sputum; cited from earlier work
P. aeruginosa BAA-2109 = tested on: P. aeruginosa BAA-2109; design: key: R = Resistant; S = Suspectible; I = Intermediate; NT = Note Tested; conditions: strain BAA-2109, isolated from human sputum; cited from earlier work
P. aeruginosa BAA-2110 = tested on: P. aeruginosa BAA-2110; design: key: R = Resistant; S = Suspectible; I = Intermediate; NT = Note Tested; conditions: strain BAA-2110, isolated from human sputum; cited from earlier work
P. aeruginosa BAA-2111 = tested on: P. aeruginosa BAA-2111; design: key: R = Resistant; S = Suspectible; I = Intermediate; NT = Note Tested; conditions: strain BAA-2111, isolated from human sputum; cited from earlier work
P. aeruginosa BAA-2112 = tested on: P. aeruginosa BAA-2112; design: key: R = Resistant; S = Suspectible; I = Intermediate; NT = Note Tested; conditions: strain BAA-2112, isolated from human sputum; cited from earlier work
P. aeruginosa BAA-2113 = conditions: strain BAA-2113, isolated from human sputum; cited from earlier work
P. aeruginosa BAA-2114 = tested on: P. aeruginosa BAA-2114; design: key: R = Resistant; S = Suspectible; I = Intermediate; NT = Note Tested; conditions: strain BAA-2114, isolated from human sputum; cited from earlier work
[3] = Cytotoxicity to mammalian cells; conditions: human, 293T cells, Cytotox CC50, concentration at which 50% cytotoxicity of mammalian cells is observed
[4] = in words, human serum
Procedure: Assessment of Serum Stability. […] Twenty μl of each test article was placed in a 2.0 ml round bottom microfuge tube. […] Assay tubes were placed at 37° C. in a rotating rack between time-points. […] Supernatant from each tube was collected and frozen at −20° C. for analysis. Samples were harvested and processed at various time-points up to 6 hours.

293T = experiment: Cytotoxicity to mammalian cells; conditions: in words
human red blood cells [5] = experiment: Red blood cell hemolysis (MLC, PLC); conditions: in words
P. aeruginosa = experiment: MIC testing of antimicrobial peptides (screen); format: cell-based; conditions: in words
Source text: Initially, a bioinformatics-driven workflow (mine public database of AMPs (YADAMP)→cluster AMPs by properties→evaluate activity and toxicity) was utilized to select AMPs for experimental characterization to identify potent payloads with a high therapeutic index (FIG. 7A). […] To facilitate identification of AMPs for use in an ADC, a screening strategy that clustered peptides based on their underlying physicochemical properties was implemented, followed by characterization of representative members from each cluster. Here YADAMP, a database of AMPs that contains over 2,500 sequences of peptides with reported antibacterial activity, was used. Clustering was performed by utilizing a K-means algorithm using calculated properties that have been reported to be relevant to antimicrobial activity (peptide length, predicted helicity, predicted hydropathy, percentage of select amino acids [Lys, Arg, Trp, Cys, His], and charge at pH7, pH5, and pH9). […] Once potent peptides with favorable characteristics were identified, the remaining members of the corresponding clusters were then selected for experimental characterization. […]
Assessment of Antimicrobial Activity. […] After 18 hours the plates were read using a mirrored plate reader and reflected incandescent light. […] Wells at and above the MIC should appear void of growth when read by eye.

P. aeruginosa PA14 = experiment: Acute (immunocompetent) lung infection model; conditions: immunocompetent mice, single intraperitoneal dose 15 mg/kg three hours post-infection, 100 hours
[6] = numbers in parentheses are molar equivalents

Question: Which “MIC Pae 27853” value (Pae 27853) does the source give for `CC(C)(O/N=C(\C(=O)N[C@@H]1C(=O)N2C(C(=O)[O-])=C(C[n+]3ccccc3)CS[C@H]12)c1csc(N)n1)C(=O)O` [Ceftazidime] here?
Answer: 1 μg,/ml

Question: And the “MIC Pae 27853, molar equivalents” value (Pae 27853; [6])?
Answer: (1.8)

Question: What about the “MIC Pae 39324” value (Pae 39324) of the same molecule?
Answer: 1 μg,/ml

Question: What about the “MIC Pae 39324, molar equivalents” value (Pae 39324; [6]) of the same molecule?
Answer: (1.8)

Question: What about the “MIC Eco 25922” value (Eco 25922) of the same molecule?
Answer: 0.25 μg,/ml

Question: What about the “MIC Eco 25922, molar equivalents” value (Eco 25922; [6]) of the same molecule?
Answer: (0.5)

Question: What about the “MIC Sau 29213” value (Sau 29213) of the same molecule?
Answer: 4 μg,/ml

Question: What about the “MIC Sau 29213, molar equivalents” value (Sau 29213; [6]) of the same molecule?
Answer: (7.3)

Question: What about the “Human Serum hsMIC/MIC” value [1] of the same molecule?
Answer: 1

Question: And the “Hemolysis MLC/MIC” value (human red blood cells [2])?
Answer: 16

Question: What about the “Hemolysis PLC/MIC” value (human red blood cells [2]) of the same molecule?
Answer: 8

Question: What about the antibiotic resistance phenotype (P. aeruginosa BAA-2108) of the same molecule?
Answer: S

Question: And the antibiotic resistance phenotype (P. aeruginosa BAA-2109)?
Answer: S

Question: What about the antibiotic resistance phenotype (P. aeruginosa BAA-2110) of the same molecule?
Answer: S

Question: And the antibiotic resistance phenotype (P. aeruginosa BAA-2111)?
Answer: S

Question: What about the antibiotic resistance phenotype (P. aeruginosa BAA-2112) of the same molecule?
Answer: S

Question: What about the antibiotic resistance phenotype (P. aeruginosa BAA-2113) of the same molecule?
Answer: I/R

Question: And the antibiotic resistance phenotype (P. aeruginosa BAA-2114)?
Answer: S

Question: What about the CC50 [3] of the same molecule?
Answer: 550 µg/mL (≈ 1010 µM)

Question: What does the source list for `CC[C@@H](C)[C@@H](NC(=O)[C@H](NC(=O)[C@@H](CCCNC(=N)N)NC(=O)[C@H]1CCCN1C(=O)[C@@H](CCCCN)NC(=O)[C@@H](CCCCN)NC(=O)[C@@H](Cc1ccccc1)NC(=O)[C@@H](Cc1ccccc1)NC(=O)[C@@H](CCC(=O)O)NC(=O)[C@@H](CCCCN)NC(=O)[C@@H](C)NC(=O)[C@@H](CCCNC(=N)N)NC(=O)[C@@H](CCCCN)NC(=O)[C@@H](CCCCN)NC(=O)[C@H](NC(=O)[C@@H](CO)NC(=O)[C@@H](CCCCN)NC(=O)[C@@H](CCCCN)NC(=O)[C@@H](CC(C)C)NC(=O)[C@@H](CCCCN)NC(=O)[C@@H](CCCNC(=N)N)NC(=O)[C@@H](Cc1ccccc1)NC(=O)[C@@H](Cc1ccccc1)NC(=O)[C@@H](CCCCN)NC(=O)CNC(=O)CNC(=O)CN)C(C)C)C(C)C)C(=O)NCC(=O)N[C@@H](C(=O)N[C@H](CO)C(=O)N[C@@H](C(=O)N1CCC[C@@H]1C(=O)N[C@H](Cc1ccccc1)C(=O)O)[C@H](C)CC)C(C)C` [Peptide D297] (H-GGG[dK][dF][dF][dR][dK][dL][dK][dK][dS][dV][dK][dK][dR][dA][dK][dE][dF][dF][dK][dK][dP][dR][dV][dI]G[dV][dS][dI][dP][dF]-OH)?
Answer: serum stability [4]: stable in serum; serum stability ([4]; listed as (D)-P297): more stable than (L)-P297; cytotoxic activity against mammalian cells (293T): low hemolytic and cytotoxic activity; hemolytic activity (human red blood cells [5]): low hemolytic and cytotoxic activity

Question: Which “potency against P. aeruginosa” value (P. aeruginosa) does the source give for “GGGKLLRKLKKSVKKRAKELLKKPRVIGVSIPL [Peptide P369]” here?
Answer: more potent peptide

Question: What does the source list for cathelicidin-BF?
Answer: potency against P. aeruginosa (P. aeruginosa): potent MIC values against multiple P. aeruginosa strains; cytotoxic activity against mammalian cells (293T): inability to kill mammalian cells; hemolytic activity (human red blood cells [5]): low hemolytic activity

B1: actoxumab-D297: sham-conjugate prepared using a non-P. aeruginosa targeting antibody (actoxumab) (conjugate, chains of the INN, looked up)
VH: QVQLVESGGGVVQPGRSLRLSCAASGFSFSNYGMHWVRQAPGKGLEWVALIWYDGSNEDYTDSVKGRFTISRDNSKNTLYLQMNSLRAEDTAVYYCARWGMVRGVIDVFDIWGQGTVVTVSS
VL: DIQMTQSPSSVSASVGDRVTITCRASQGISSWLAWYQHKPGKAPKLLIYAASSLQSGVPSRFSGSGSGTDFTLTISSLQPEDFATYYCQQANSFPWTFGQGTKVEIK
modifications: D297 payload; sham conjugate
Question: For B1, which survival (P. aeruginosa PA14) is on record?
Answer: no survival benefit
